In US8461083B2, “Herbicidal compounds” (Syngenta Limited, priority 2008, dated 2013):

Columns and labels:
Format in all cases: in vivo
[1] = tested on: Alopecurus myosuroides (ALOMY); assay: Post-emergence herbicidal glasshouse test; conditions: post-emergence (sprayed after 8 days cultivation), evaluated after 13 days, 100=total damage to plant, 0=no damage to plant; for POST Application ALOMY, damage to plant: 1000 g/ha; for pest or weed control at 1000 g/ha: Alopecurus myosuroides, 312 h, read-out: POST Application ALOMY, damage to plant
Method: (§1) Seeds of a variety of test species were sown in standard soil in pots (Alopecurus myosuroides (ALOMY), Setaria faberi (SETFA), Echinochloa crus-galli (ECHCG), Solanum nigrum (SOLNI) and Amaranthus retoflexus (AMARE)). After cultivation for one day (pre-emergence) or after 8 days cultivation (post-emergence) under controlled conditions in a glasshouse (at 24/16° C., day/night; 14 hours light; 65% humidity), the plants were sprayed with an aqueous spray solution derived from the formulation of the technical active ingredient in acetone/water (50:50) solution containing 0.5% Tween 20 (polyoxyethelyene sorbitan monolaurate, CAS RN 9005-64-5). Compounds were applied at 1000 g/ha. The test plants were then grown in a glasshouse under controlled conditions in a glasshouse (at 24/16° C., day/night; 14 hours light; 65% humidity) and watered twice daily. After 13 days for pre and post-emergence, the test was evaluated (100=total damage to plant; 0=no damage to plant).

[2] = tested on: Amaranthus retoflexus (AMARE); assay: Post-emergence herbicidal glasshouse test; conditions: post-emergence (sprayed after 8 days cultivation), evaluated after 13 days, 100=total damage to plant, 0=no damage to plant; for POST Application AMARE, damage to plant: 1000 g/ha; for pest or weed control at 1000 g/ha: Amaranthus retroflexus, 312 h, read-out: POST Application AMARE, damage to plant
Method: as §1

[3] = tested on: Echinochloa crus-galli (ECHCG); assay: Post-emergence herbicidal glasshouse test; conditions: post-emergence (sprayed after 8 days cultivation), evaluated after 13 days, 100=total damage to plant, 0=no damage to plant; for POST Application ECHCG, damage to plant: 1000 g/ha; for pest or weed control at 1000 g/ha: Echinochloa crus-galli, 312 h, read-out: POST Application ECHCG, damage to plant
Method: as §1

Setaria faberi (SETFA) [4] = assay: Post-emergence herbicidal glasshouse test; conditions: post-emergence (sprayed after 8 days cultivation), evaluated after 13 days, 100=total damage to plant, 0=no damage to plant; for POST Application SETFA, damage to plant: 1000 g/ha; for pest or weed control at 1000 g/ha: Setaria faberi, 312 h, read-out: POST Application SETFA, damage to plant
Method: as §1

Solanum nigrum (SOLNI) [5] = assay: Post-emergence herbicidal glasshouse test; conditions: post-emergence (sprayed after 8 days cultivation), evaluated after 13 days, 100=total damage to plant, 0=no damage to plant; for POST Application SOLNI, damage to plant: 1000 g/ha; for pest or weed control at 1000 g/ha: Solanum nigrum, 312 h, read-out: POST Application SOLNI, damage to plant
Method: as §1

[6] = tested on: Alopecurus myosuroides (ALOMY); assay: Pre-emergence herbicidal glasshouse test; conditions: pre-emergence (sprayed after one day cultivation), evaluated after 13 days, 100=total damage to plant, 0=no damage to plant; for PRE Application ALOMY, damage to plant: 1000 g/ha; for pest or weed control at 1000 g/ha: Alopecurus myosuroides, 312 h, read-out: PRE Application ALOMY, damage to plant
Method: as §1

[7] = tested on: Amaranthus retoflexus (AMARE); assay: Pre-emergence herbicidal glasshouse test; conditions: pre-emergence (sprayed after one day cultivation), evaluated after 13 days, 100=total damage to plant, 0=no damage to plant; for PRE Application AMARE, damage to plant: 1000 g/ha; for pest or weed control at 1000 g/ha: Amaranthus retroflexus, 312 h, read-out: PRE Application AMARE, damage to plant
Method: as §1

[8] = tested on: Echinochloa crus-galli (ECHCG); assay: Pre-emergence herbicidal glasshouse test; conditions: pre-emergence (sprayed after one day cultivation), evaluated after 13 days, 100=total damage to plant, 0=no damage to plant; for PRE Application ECHCG, damage to plant: 1000 g/ha; for pest or weed control at 1000 g/ha: Echinochloa crus-galli, 312 h, read-out: PRE Application ECHCG, damage to plant
Method: as §1

Setaria faberi (SETFA) [9] = assay: Pre-emergence herbicidal glasshouse test; conditions: pre-emergence (sprayed after one day cultivation), evaluated after 13 days, 100=total damage to plant, 0=no damage to plant; for PRE Application SETFA, damage to plant: 1000 g/ha; for pest or weed control at 1000 g/ha: Setaria faberi, 312 h, read-out: PRE Application SETFA, damage to plant
Method: as §1

Solanum nigrum (SOLNI) [10] = assay: Pre-emergence herbicidal glasshouse test; conditions: pre-emergence (sprayed after one day cultivation), evaluated after 13 days, 100=total damage to plant, 0=no damage to plant; for PRE Application SOLNI, damage to plant: 1000 g/ha; for pest or weed control at 1000 g/ha: Solanum nigrum, 312 h, read-out: PRE Application SOLNI, damage to plant
Method: as §1

## CCc1ccc2cc(C(=O)C3C(=O)CCCC3=O)c(C(F)(F)F)nc2n1 [Compound 1.3, 2-[7-ethyl-trifluoromethyl-[1,8]-naphthyridine-3-carbony]-cyclohexane-1,3-dione]
[1]
  POST Application ALOMY, damage to plant: 70
[2]
  POST Application AMARE, damage to plant: 100
[3]
  POST Application ECHCG, damage to plant: 80
Setaria faberi (SETFA) [4]
  POST Application SETFA, damage to plant: 90
Solanum nigrum (SOLNI) [5]
  POST Application SOLNI, damage to plant: 90
[6]
  PRE Application ALOMY, damage to plant: 80
[7]
  PRE Application AMARE, damage to plant: 90
[8]
  PRE Application ECHCG, damage to plant: 100
Setaria faberi (SETFA) [9]
  PRE Application SETFA, damage to plant: 80
Solanum nigrum (SOLNI) [10]
  PRE Application SOLNI, damage to plant: 100

## O=C1CCCC(=O)C1C(=O)c1cc2ccc(CF)nc2nc1C(F)(F)F [Compound 1.11]
[1]
  pest or weed control at 1000 g/ha: 70%
[2]
  pest or weed control at 1000 g/ha: 100%
[3]
  pest or weed control at 1000 g/ha: 90%
Setaria faberi (SETFA) [4]
  pest or weed control at 1000 g/ha: 90%
Solanum nigrum (SOLNI) [5]
  pest or weed control at 1000 g/ha: 100%
[6]
  pest or weed control at 1000 g/ha: 60%
[7]
  pest or weed control at 1000 g/ha: 80%
[8]
  pest or weed control at 1000 g/ha: 100%
Setaria faberi (SETFA) [9]
  pest or weed control at 1000 g/ha: 100%
Solanum nigrum (SOLNI) [10]
  pest or weed control at 1000 g/ha: 100%

## O=C1CCCC(=O)C1C(=O)c1cc2ccc(C(F)F)nc2nc1C(F)(F)F [Compound 1.12]
[1]
  pest or weed control at 1000 g/ha: 100%
[2]
  pest or weed control at 1000 g/ha: 60%
[3]
  pest or weed control at 1000 g/ha: 100%
Setaria faberi (SETFA) [4]
  pest or weed control at 1000 g/ha: 100%
Solanum nigrum (SOLNI) [5]
  pest or weed control at 1000 g/ha: 100%
[6]
  pest or weed control at 1000 g/ha: 90%
[7]
  pest or weed control at 1000 g/ha: 100%
[8]
  pest or weed control at 1000 g/ha: 100%
Setaria faberi (SETFA) [9]
  pest or weed control at 1000 g/ha: 100%
Solanum nigrum (SOLNI) [10]
  pest or weed control at 1000 g/ha: 100%

## O=C1CCCC(=O)C1C(=O)c1cc2ccc(OC3CCCC3)nc2nc1C(F)(F)F [Compound 1.16]
[1]
  POST Application ALOMY, damage to plant: 70
[2]
  POST Application AMARE, damage to plant: 70
[3]
  POST Application ECHCG, damage to plant: 70
Setaria faberi (SETFA) [4]
  POST Application SETFA, damage to plant: 90
Solanum nigrum (SOLNI) [5]
  POST Application SOLNI, damage to plant: 90
[6]
  PRE Application ALOMY, damage to plant: 60
[7]
  PRE Application AMARE, damage to plant: 80
[8]
  PRE Application ECHCG, damage to plant: 90
Setaria faberi (SETFA) [9]
  PRE Application SETFA, damage to plant: 90
Solanum nigrum (SOLNI) [10]
  PRE Application SOLNI, damage to plant: 90

## O=C1CCCC(=O)C1C(=O)c1cc2ccc(Oc3ccccc3)nc2nc1C(F)(F)F [Compound 1.17, 2-(7-phenoxy-2-trifluoromethyl-[1,8]-naphthyridine-3-carbonyl)-cyclohexane-1,3-dione]
[1]
  pest or weed control at 1000 g/ha: 90%
[2]
  pest or weed control at 1000 g/ha: 70%
[3]
  pest or weed control at 1000 g/ha: 90%
Setaria faberi (SETFA) [4]
  pest or weed control at 1000 g/ha: 100%
Solanum nigrum (SOLNI) [5]
  pest or weed control at 1000 g/ha: 100%
[6]
  pest or weed control at 1000 g/ha: 100%
[7]
  pest or weed control at 1000 g/ha: 100%
[8]
  pest or weed control at 1000 g/ha: 100%
Setaria faberi (SETFA) [9]
  pest or weed control at 1000 g/ha: 100%
Solanum nigrum (SOLNI) [10]
  pest or weed control at 1000 g/ha: 100%

## CS(=O)(=O)c1ccc2cc(C(=O)C3C(=O)CCCC3=O)c(C(F)(F)F)nc2n1 [Compound 1.20]
[1]
  pest or weed control at 1000 g/ha: 20%
[2]
  pest or weed control at 1000 g/ha: 80%
[3]
  pest or weed control at 1000 g/ha: 90%
Setaria faberi (SETFA) [4]
  pest or weed control at 1000 g/ha: 100%
Solanum nigrum (SOLNI) [5]
  pest or weed control at 1000 g/ha: 100%
[6]
  pest or weed control at 1000 g/ha: 20%
[7]
  pest or weed control at 1000 g/ha: 30%
[8]
  pest or weed control at 1000 g/ha: 70%
Setaria faberi (SETFA) [9]
  pest or weed control at 1000 g/ha: 80%
Solanum nigrum (SOLNI) [10]
  pest or weed control at 1000 g/ha: 100%

## O=C1CCCC(=O)C1C(=O)c1cc2ccc(O)nc2nc1C(F)(F)F [Compound 1.21, 2-(7-hydroxy-2-trifluoromethyl-[1,8]-naphthyridine-3-carbony)-cyclohexane-1,3-dione]
[1]
  pest or weed control at 1000 g/ha: 100%
[2]
  pest or weed control at 1000 g/ha: 100%
[3]
  pest or weed control at 1000 g/ha: 100%
Setaria faberi (SETFA) [4]
  pest or weed control at 1000 g/ha: 100%
Solanum nigrum (SOLNI) [5]
  pest or weed control at 1000 g/ha: 100%
[6]
  pest or weed control at 1000 g/ha: 80%
[7]
  pest or weed control at 1000 g/ha: 100%
[8]
  pest or weed control at 1000 g/ha: 100%
Setaria faberi (SETFA) [9]
  pest or weed control at 1000 g/ha: 100%
Solanum nigrum (SOLNI) [10]
  pest or weed control at 1000 g/ha: 100%

## CC(F)c1ccc2cc(C(=O)C3C(=O)CCCC3=O)c(C(F)(F)F)nc2n1 (stereo not shown) [Compound 1.35, 2-[7-(1-fluoroethyl)-2-trifluoromethyl-[1,8]-naphthyridine-3-carbony]-cyclohexane-1,3-dione]
[1]
  POST Application ALOMY, damage to plant: 90
[2]
  POST Application AMARE, damage to plant: 100
[3]
  POST Application ECHCG, damage to plant: 90
Setaria faberi (SETFA) [4]
  POST Application SETFA, damage to plant: 90
Solanum nigrum (SOLNI) [5]
  POST Application SOLNI, damage to plant: 90
[6]
  PRE Application ALOMY, damage to plant: 70
[7]
  PRE Application AMARE, damage to plant: 100
[8]
  PRE Application ECHCG, damage to plant: 100
Setaria faberi (SETFA) [9]
  PRE Application SETFA, damage to plant: 100
Solanum nigrum (SOLNI) [10]
  PRE Application SOLNI, damage to plant: 100

## CC(F)(F)c1ccc2cc(C(=O)C3C(=O)CCCC3=O)c(C(F)(F)F)nc2n1 [Compound 1.36, 2-[7-(1,1-difluoroethyl)-2-trifluoromethyl-[1,8]-naphthyridine-3-carbony]-cyclohexane-1,3-dione]
[1]
  POST Application ALOMY, damage to plant: 90
[2]
  POST Application AMARE, damage to plant: 100
[3]
  POST Application ECHCG, damage to plant: 90
Setaria faberi (SETFA) [4]
  POST Application SETFA, damage to plant: 90
Solanum nigrum (SOLNI) [5]
  POST Application SOLNI, damage to plant: 100
[6]
  PRE Application ALOMY, damage to plant: 70
[7]
  PRE Application AMARE, damage to plant: 100
[8]
  PRE Application ECHCG, damage to plant: 90
Setaria faberi (SETFA) [9]
  PRE Application SETFA, damage to plant: 100
Solanum nigrum (SOLNI) [10]
  PRE Application SOLNI, damage to plant: 100

## CC(C)(F)c1ccc2cc(C(=O)C3C(=O)CCCC3=O)c(C(F)(F)F)nc2n1 [Compound 1.37]
[1]
  POST Application ALOMY, damage to plant: 80
[2]
  POST Application AMARE, damage to plant: 100
[3]
  POST Application ECHCG, damage to plant: 90
Setaria faberi (SETFA) [4]
  POST Application SETFA, damage to plant: 90
Solanum nigrum (SOLNI) [5]
  POST Application SOLNI, damage to plant: 70
[6]
  PRE Application ALOMY, damage to plant: 80
[7]
  PRE Application AMARE, damage to plant: 100
[8]
  PRE Application ECHCG, damage to plant: 100
Setaria faberi (SETFA) [9]
  PRE Application SETFA, damage to plant: 100
Solanum nigrum (SOLNI) [10]
  PRE Application SOLNI, damage to plant: 100
